Measured values: US6821980B1, “Substituted 5-benzyl-2,4-diaminopyrimidines” (Basilea Pharmaceutica AG, priority 1999, dated 2004)
In brackets after ≈: the same amount, converted by molar mass. Read-outs that look alike come from different tables or passages of the source.

Legend:
[1] = target: purified DHFR of strain 157/4696 of Staphylococcus aureus (Staphylococcus aureus, UniProt P13955); assay: biochemical
[2] = test system: Streptococcus pneumoniae 1/1; assay: MIC against Streptococcus pneumoniae 1/1; format: cell-based
[3] = test system: Staphylococcus aureus 101; assay: MIC against Staphylococcus aureus 101; format: cell-based; settings: for MIC: read-out: MIC Sa101
[4] = target: T1, purified DHFR of strain Sp1/1 of Streptococcus pneumoniae (Streptococcus pneumoniae serotype 4, UniProt Q54801); format: biochemical
T1 sequence (Q54801 1-168 I100L): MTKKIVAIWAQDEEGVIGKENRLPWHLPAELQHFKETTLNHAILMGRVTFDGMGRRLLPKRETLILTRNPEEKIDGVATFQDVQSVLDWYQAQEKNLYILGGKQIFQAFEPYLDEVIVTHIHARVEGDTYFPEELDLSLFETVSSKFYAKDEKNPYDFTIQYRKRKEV

[5] = Table 2, Streptococcus pneumoniae 1/1, trimethoprim- and penicillin-resistant, serotype 6, clinical isolate, read-out: MIC Sp1/1
[6] = Table 2, Staphylococcus aureus 101, MRSA- and trimethoprim-resistant, clinical isolate
[7] = Table 2, IC50 against purified DHFR of strain Sp1/1
[8] = Table 2, IC50 against purified DHFR of strain 157/4696 (highly trimethoprim-resistant; clinical isolate), read-out: DHFR Sa1
[9] = Table 2, Streptococcus pneumoniae 1/1, trimethoprim- and penicillin-resistant, serotype 6, clinical isolate
[10] = Table 1, Streptococcus pneumoniae 1/1, trimethoprim- and penicillin-resistant, serotype 6, clinical isolate, read-out: MIC Sp1/1
[11] = Table 1, Staphylococcus aureus 101, MRSA- and trimethoprim-resistant, clinical isolate

Sequence of purified DHFR of strain 157/4696 of Staphylococcus aureus (P13955 whole entry): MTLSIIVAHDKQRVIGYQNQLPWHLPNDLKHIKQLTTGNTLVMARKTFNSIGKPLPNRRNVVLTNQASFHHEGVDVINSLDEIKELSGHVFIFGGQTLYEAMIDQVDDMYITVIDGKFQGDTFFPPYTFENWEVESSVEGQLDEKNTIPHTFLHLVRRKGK

Row | Structure (SMILES) | IC50 [1] | MIC [2, 5] | MIC [3, 6] | IC50 [4, 7] | other results
1 | CCOc1cc(Cc2cnc(N)nc2N)cc(OCC(F)(F)F)c1-c1ccc(O)cc1 [Example 08-s] | 3.7 µM | 2 µg/mL (≈ 4.6 µM) | 4 µg/mL (≈ 9.21 µM) | 0.031 µM | 
2 | CCOc1cc(Cc2cnc(N)nc2N)cc(OS(=O)(=O)CC2CC2)c1-c1ccc(CN2CCOCC2)c(N)c1 [Example 38-d, Cyclopropylmethane-sulphonic acid 3′-amino-4-(2,4-diamino-pyrimidin-5-ylmethyl)-6-ethoxy-4′-morpholinemethyl-biphenyl-2-yl ester] |  |  |  | 0.0032 µM | IC50 [1, 8]: 0.24 µM; MIC Sp1/1 [2, 9]: 1 µg/mL (≈ 1.76 µM); MIC Sa101 [3, 6]: 4 µg/mL (≈ 7.03 µM)
3 | CCOc1cc(Cc2cnc(N)nc2N)cc(OCC(C)(C)CO)c1-c1ccc(O)cc1 [Example 08-p] | 0.8 µM | 4 µg/mL (≈ 9.12 µM) | 8 µg/mL (≈ 18.2 µM) | 0.02 µM | 
4 | CCOc1cc(Cc2cnc(N)nc2N)cc(OCCC2CCCCO2)c1-c1cccc(N)c1 (racemic) [Example 07-h, (RS)-5-[3′-Amino-6-ethoxy-2-[2-(tetrahydro-pyran-2-yl)-ethoxy]-biphenyl-4-ylmethyl]-2yrimidine-2,4-diamine] | 2.2 µM | 2 µg/mL (≈ 4.31 µM) | 8 µg/mL (≈ 17.3 µM) | 0.027 µM | 
5 | CCOc1cc(Cc2cnc(N)nc2N)cc(OS(=O)(=O)N2CCCC2)c1-c1ccc(NC)cc1 [Example 26-e, Pyrrolidine-1-sulphonic acid 4-(2,4-diamino-pyrimidin-5-ylmethyl)-6-ethoxy-4′-methylamino-biphenyl-2-yl ester] | 0.13 µM | 1 µg/mL (≈ 2.01 µM) | 1 µg/mL (≈ 2.01 µM) | 0.0023 µM | 
6 | CCCOc1cc(Cc2cnc(N)nc2N)cc(OCC)c1-c1cccc(O)c1 [Example 53-, 4′-(2,4-Diamino-pyrimidin-5-ylmethyl)-6′-ethoxy-2′-n-propoxy-biphenyl-3-ol] | 1.8 µM | 4 µg/mL (≈ 10.1 µM) | 8 µg/mL (≈ 20.3 µM) | 0.028 µM | 
7 | CCOc1cc(Cc2cnc(N)nc2N)cc(OCC)c1-c1cnc(N2CCOCC2)nc1 [Example 04-k, 5-[3,5-Diethoxy-4-(2-morpholin-4-yl-pyrimidin-5-yl)-benzyl]-pyrimidine-2,4-diamine] | 10 µM | 4 µg/mL (≈ 8.86 µM) | 8 µg/mL (≈ 17.7 µM) | 0.095 µM | 
8 | CCOc1cc(Cc2cnc(N)nc2N)cc(OCC2(CCC#N)CC2)c1-c1ccc(OC)cc1 [Example 09-c, 3-{1-[4-(2,4-Diamino-pyrimidin-5-ylmethyl)-6-ethoxy-4′-methoxy-biphenyl-2-yloxymethyl]-cyclopropyl}-propionitrile] | 0.9 µM | 1 µg/mL (≈ 2.11 µM) | 4 µg/mL (≈ 8.45 µM) | 0.016 µM | 
9 | CCOc1cc(Cc2cnc(N)nc2N)cc(OS(=O)(=O)CC2CC2)c1-c1ccc(N)c(C)c1 [Example 38-c, Cyclopropylmethane-sulphonic acid 4′-amino-4-(2,4-diamino-pyrimidin-5-ylmethyl)-6-ethoxg-3′-methyl-biphenyl-2-yl ester] | 0.19 µM | 0.5 µg/mL (≈ 1.03 µM) | 2 µg/mL (≈ 4.14 µM) | 0.0058 µM | 
10 | CCOc1cc(Cc2cnc(N)nc2N)cc(OC(C)C)c1-c1ccc(O)cc1 [Example 08-m, 4′-(2,4-diamino-pyrimidin-5-ylmethyl)-6′-ethoxy-2′-isopropoxy-biphenyl-4-ol] | 0.86 µM | 4 µg/mL (≈ 10.1 µM) | 8 µg/mL (≈ 20.3 µM) | 0.065 µM | 
11 | CCOc1cc(Cc2cnc(N)nc2N)cc(OCC2(COC)CC2)c1-c1cccc(N)c1 [Example 07-c, 5-[3′-Amino-6-ethoxg-2-[(1-methoxymethyl-cyclopropyl)-methoxy]-biphenyl-4-yimethyl]-pyrimidine-2,4-diamine] | 2.2 µM | 4 µg/mL (≈ 8.9 µM) | 8 µg/mL (≈ 17.8 µM) | 0.048 µM | 
12 | CCOc1cc(Cc2cnc(N)nc2N)cc(OCC)c1-c1ccc(O)cc1 [Example 02-t, 4′-(2,4-Diamino-pyrimidin-5-ylmethyl)-2′,6′-diethoxy-biphenyl-4-ol] | 1.1 µM |  |  | 0.081 µM | MIC ([2]; Streptococcus pneumoniae, 1/1, read-out: MIC Sp1/1): 4 µg/mL (≈ 10.5 µM); MIC ([3]; Staphylococcus aureus, MRSA): 8 µg/mL (≈ 21 µM)
13 | CCOc1cc(Cc2cnc(N)nc2N)cc(OCC(C)C)c1-c1ccc(O)cc1 [Example 08-n, 4′-(2,4-Diamino-pyrimidin-5-ylmethyl)-6′-ethoxy-2′-isobutoxy-biphenyl-4-ol] | 1.2 µM | 2 µg/mL (≈ 4.9 µM) | 4 µg/mL (≈ 9.79 µM) | 0.015 µM | 
14 | CCOc1cc(Cc2cnc(N)nc2N)cc(OC2CCC2)c1-c1ccc(O)cc1 [Example 08-k, 2′-Cyclobutoxy-4′-(2,4-diamino-pyrimidin-5-ylmethyl)-6′-ethoxy-biphenyl-4-ol] | 2.1 µM | 2 µg/mL (≈ 4.92 µM) | 4 µg/mL (≈ 9.84 µM) | 0.043 µM | 
15 | CCOc1cc(Cc2cnc(N)nc2N)cc(OCCC2CC2)c1-c1ccc(O)cc1 [Example 08-l, 2′-(2-Cydopropyl-ethoxy)-4′-(2,4-diamino-pyrimidin-5-ylmethyl)-6′-ethoxy-biphenyl-4-ol] | 2.2 µM | 8 µg/mL (≈ 19 µM) | 4 µg/mL (≈ 9.51 µM) | 0.058 µM | 
16 | CCOc1cc(Cc2cnc(N)nc2N)cc(OS(=O)(=O)N(C)C2CC2)c1-c1cc(N)cc(F)c1 [Example 29-a, N-Cyclopropyl-N-methyl-sulphamic acid 3′-amino-4-(2,4-diamino-pyrimidin-5-ylmethyl)-6-ethoxy-5′-fluoro-biphenyl-2-yl ester] | 0.22 µM | 2 µg/mL (≈ 3.98 µM) | 1 µg/mL (≈ 1.99 µM) | 0.0063 µM | 
17 | CCOc1cc(Cc2cnc(N)nc2N)cc(OS(=O)(=O)C(C)CC)c1-c1ccc(OC)c(N)c1 (centres unmarked) [Example 35-d, Butane-2-sulphonic acid 3′-amino-4-(2,4-diamino-gyrimidin-5-ylmethyl)-6-ethoxy-4′-methoxy-biphenyl-2-yl ester] | 0.095 µM | 1 µg/mL (≈ 1.99 µM) | 2 µg/mL (≈ 3.99 µM) | 0.0043 µM | 
18 | CCOc1cc(Cc2cnc(N)nc2N)cc(OS(=O)(=O)C(C)CC)c1-c1ccc(O)cc1 (centres unmarked) [Example 15-g, Butane-2-sulphonic acid 4-(2,4-diamino-Dyrimidin-5-ylmethyl)-6-ethoxy-4′-hydroxy-biphenyl-2-yl ester] | 0.039 µM | 0.5 µg/mL (≈ 1.06 µM) | 2 µg/mL (≈ 4.23 µM) | 0.025 µM | 
19 | CCOc1cc(Cc2cnc(N)nc2N)cc(OS(C)(=O)=O)c1-c1ccc(CN2CCOCC2)c(F)c1 [Example 64-a, Methanesulphonic acid 4-(2,4-diamino-pyrimidin-5-ylmethyl)-6-ethoxy-3′-fluoro-4′-morpholin-4-ylmethyl-biphenyl-2-yl ester] | 1.5 µM | 4 µg/mL (≈ 7.52 µM) | 8 µg/mL (≈ 15 µM) | 0.052 µM | 
20 | CCCS(=O)(=O)Oc1cc(Cc2cnc(N)nc2N)cc(OCC)c1-c1ccc(F)c(N)c1 [Example 32-c] |  |  |  | 0.0061 µM | IC50 [1, 8]: 0.13 µM; MIC Sp1/1 [2, 9]: 1 µg/mL (≈ 2.1 µM); MIC Sa101 [3, 6]: 4 µg/mL (≈ 8.41 µM)
21 | CCOc1cc(Cc2cnc(N)nc2N)cc(OCC(C)(C)CCC#N)c1-c1ccc(O)cc1 [Example 48-, 5-[4-(2,4-Diamino-pyrimidin-5-ylmethyl) 6-ethoy-4′-hydro-biPhenyl-2-xyloxy]-4,4-dimethyl-pentanenitrile] | 0.75 µM | 2 µg/mL (≈ 4.33 µM) | 4 µg/mL (≈ 8.67 µM) | 0.03 µM | 
22 | CCOc1cc(Cc2cnc(N)nc2N)cc(OCC2CCC2)c1-c1ccc2c(c1)OCO2 [Example 10-a, 5-(4-Benzof[1.3]dioxol-5-yl-3-cyclobutylmethoxy-5-ethoxy-benzyl)-pyrimidine-2,4-diamine] | 1.4 µM | 8 µg/mL (≈ 17.8 µM) | 8 µg/mL (≈ 17.8 µM) | 0.034 µM | 
23 | CCOc1cc(Cc2cnc(N)nc2N)cc(OCC2CCC2)c1-c1ccc(O)cc1 [Example 08-i, 2′-Cyclobutylmethoxy-4′-(2,4-diamino-pyrimidin-5-ylmethyl)-6′-ethoxy-biphenyl-4-ol] | 1 µM | 4 µg/mL (≈ 9.51 µM) | 2 µg/mL (≈ 4.76 µM) | 0.04 µM | 
24 | CCOc1cc(Cc2cnc(N)nc2N)cc(OCC)c1-c1ccc(OC)c(COC)c1 [Example 02-aa, 5-(2,6-Diethoxy-4′-methoxy-3′-methoxymethyl-biphenyl-4-ylmethyl)-pyrimidine-2,4-diamine] | 2.5 µM | 4 µg/mL (≈ 9.12 µM) | 8 µg/mL (≈ 18.2 µM) | 0.06 µM | 
25 | CCOc1cc(Cc2cnc(N)nc2N)cc(OCC2(CC#N)CC2)c1-c1ccc(OC)cc1 [Example 09-b] | 1.9 µM | 2 µg/mL (≈ 4.35 µM) | 8 µg/mL (≈ 17.4 µM) |  | 
26 | CCOc1cc(Cc2cnc(N)nc2N)cc(OCC)c1-c1ccc(NC(C)=O)cc1 [Example 04-p, N-[4′-(2,4-Diamino-pyrimidin-5-ylmethl)-2′,6′-diethoxy-biphen-4-yl]-acetamide] |  |  |  |  | MIC Sp1/1 [2, 9]: 2 µg/mL (≈ 4.74 µM); MIC Sa101 [3, 6]: 8 µg/mL (≈ 19 µM)
27 | CCOc1cc(Cc2cnc(N)nc2N)cc(OCC)c1-n1cccc1 [Epiroprim, reference compound] |  |  |  |  | MIC [2, 10]: 4 µg/mL (≈ 11.3 µM); MIC Sp1/1 [2, 9]: 4 µg/mL (≈ 11.3 µM); MIC [3, 11]: 16 µg/mL (≈ 45.3 µM); MIC Sa101 [3, 6]: 16 µg/mL (≈ 45.3 µM); IC50 [4]: 0.19 µM
28 | COc1cc(Cc2cnc(N)nc2N)cc(OC)c1OC [Trimethoprim, reference compound] |  |  |  |  | MIC [2, 10]: > 32 µg/mL; MIC Sp1/1 [2, 9]: >32 µg/mL; MIC [3, 11]: 32 µg/mL (≈ 110 µM); MIC Sa101 [3, 6]: 32 µg/mL (≈ 110 µM)
